Data on three molecules can be found in patent EP3046573B1, “AMYLIN ANALOGUES” (Zealand Pharma A/S, priority 2013, dated 2015).

For data set [1], the target named is T1, human calcitonin receptor (hCTR2) (Homo sapiens, UniProt P30988).
T1 construct: expressed in transfected cells
T1 sequence (P30988 25-474): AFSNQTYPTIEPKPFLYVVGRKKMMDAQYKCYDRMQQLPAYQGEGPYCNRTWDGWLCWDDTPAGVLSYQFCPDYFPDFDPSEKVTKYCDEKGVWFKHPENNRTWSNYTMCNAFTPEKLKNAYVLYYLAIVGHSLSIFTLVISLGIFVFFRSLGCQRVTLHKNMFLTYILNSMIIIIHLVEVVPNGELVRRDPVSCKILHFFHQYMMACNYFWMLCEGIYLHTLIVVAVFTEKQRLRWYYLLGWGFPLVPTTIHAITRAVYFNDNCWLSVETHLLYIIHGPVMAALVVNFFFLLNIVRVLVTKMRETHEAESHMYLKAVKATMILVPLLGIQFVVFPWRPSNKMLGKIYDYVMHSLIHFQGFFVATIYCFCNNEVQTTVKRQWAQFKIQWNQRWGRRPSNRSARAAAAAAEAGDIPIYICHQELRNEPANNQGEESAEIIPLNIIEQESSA
In words: hCTR2 assay: induction of cAMP (AlphaScreen cAMP Assay kit) in COS7 cells expressing hCTR2. The class given is cell-based. The following applies: cAMP induction in COS7 cells expressing hCTR2; average of a minimum of 3 determinations; read-out: hCTR2 EC50. A digest of the protocol:
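Functional agonism is measured as cAMP accumulation in a COS7 line stably transfected with hCTR2, lacking endogenous RAMPs. Peptides act for 15 min at 37° C with IBMX present, and curves are fitted with a 4-parameter logistic model.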

The target of data set [2] is T2, human amylin receptor 3 (hAMYR3) consisting of hCTR2 co-expressed with human Receptor Activity Modifying Protein 3 (hRAMP3) (Homo sapiens, UniProt O60896+P30988).
T2 construct: expressed in transfected cells
T2 sequence (P30988 25-474): T1 sequence (P30988 25-474)
T2 sequence (O60896 24-148 partner): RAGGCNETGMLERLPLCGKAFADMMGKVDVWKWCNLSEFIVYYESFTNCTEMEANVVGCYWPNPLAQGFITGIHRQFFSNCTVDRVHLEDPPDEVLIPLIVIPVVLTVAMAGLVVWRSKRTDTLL
Description: hAMYR3 assay: induction of cAMP (AlphaScreen cAMP Assay kit) in COS7 cells expressing hAMYR3. Conditions: cAMP induction in COS7 cells expressing hAMYR3; average of a minimum of 3 determinations; read-out: hAMY R3 EC50. The class given is cell-based. In short, it runs like this:
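Stable COS7 clone co-expressing hCTR2 and hRAMP3, stimulated 15 min at 37° C with increasing peptide in Tyrode buffer pH 7.4 with 100 µM IBMX and 0.1% casein. cAMP measured by AlphaScreen after lysis; EC50 and % efficacy versus pramlintide from 4PL fit.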
In general terms: Alpha assays give light when donor and acceptor beads are brought close together.

Data set [3] can be described thus: Solubility assessment (turbidity absorbance at 325 nm). The class given is physicochemical. Conditions: stock 2 mg/ml diluted 1:1, ambient temperature (typically 25°C), n=1; for Solubility, Acetate buffer pH 4: 100 mM acetate buffer pH 4.0; for Solubility, Acetate buffer pH 5: 100 mM acetate buffer pH 5.0; for Solubility, Histidine buffer pH 6: 100 mM histidine buffer pH 6.0; for Solubility, Histidine buffer pH 7: 100 mM histidine buffer pH 7.0; for Solubility, Phosphate buffer pH 6: 100 mM phosphate buffer pH 6.0; for Solubility, Phosphate buffer pH 7: 100 mM phosphate buffer pH 7.0; for Solubility, Phosphate buffer pH 7.5: 100 mM phosphate buffer pH7.5. A digest of the protocol: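 Stock 2 mg/ml peptide, H2O/HCl pH 2.5; 1:1 into 100 mM buffers: acetate pH 4.0/5.0, His pH 6.0/7.0, phosphate pH 6.0/7.0/7.5. A280 + A325, ~25°C, n=1. Soluble ≥ 1 mg/ml if A325 ≤ 0.02.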

Numbered stars: 1 amine (or outer) side, 2 acyl side, 3 side chain; on linkers, the order of the positions; unused ones are H or OH. Bridge positions count the residues as written; N and C are the ends. Square brackets hold non-standard residues; d marks the D form. Peptide text beside a SMILES is read from it. * marks the point of attachment. C20 diacid = O=C(O)CCCCCCCCCCCCCCCCCCC(=O)*; γGlu = O=C(O)[C@H](CCC(=O)[*:2])N[*:1]; NMeI = CC[C@H](C)[C@H](NC)C(=O)O; Sar = CNCC(=O)O

For orientation: EC50 means the midpoint of the concentration-response curve. Take `CC[C@H](C)[C@@H](C(=O)N[C@@H](CC(C)C)C(=O)N[C@@H](CO)C(=O)N[C@@H](CO)C(=O)N[C@H](C(=O)N[C@@H](CCC(=O)O)C(=O)N[C@H](C(=O)NCC(=O)N[C@@H](CO)C(=O)N[C@@H](CCC(=O)O)C(=O)N[C@H](C(=O)N1CCC[C@H]1C(N)=O)[C@@H](C)O)C(C)C)[C@@H](C)O)N(C)C(=O)[C@H](C)NC(=O)CN(C)C(=O)[C@H](Cc1ccccc1)NC(=O)[C@H](CO)NC(=O)[C@H](CO)NC(=O)[C@H](CO)NC(=O)[C@H](CO)NC(=O)[C@H](CCCNC(=N)N)NC(=O)[C@H](Cc1c[nH]cn1)NC(=O)[C@H](CC(C)C)NC(=O)[C@H](Cc1ccccc1)NC(=O)[C@H](CCC(=O)O)NC(=O)[C@H](C)NC(=O)[C@H](CC(C)C)NC(=O)[C@H](CCCNC(=N)N)NC(=O)[C@H](CO)NC(=O)[C@@H](NC(=O)[C@H](C)NC(=O)[C@@H]1CSSC[C@H](NC(=O)[C@H](CCCNC(=N)N)NC(=O)CC[C@H](NC(=O)CCCCCCCCCCCCCCCCCCC(=O)O)C(=O)O)C(=O)N[C@@H](CCC(=O)O)C(=O)N[C@@H]([C@@H](C)O)C(=O)N[C@@H](C)C(=O)N[C@@H]([C@@H](C)O)C(=O)N1)[C@@H](C)O` [Compound 139, [19CD]-isoGlu-RC()ETATC()ATSRLAEFLHRSSSSF-Gly(Me)-A-Ile(Me)-LSSTEVGSETP-NH2] ({C20 diacid-γGlu}-RCETATCATSRLAEFLHRSSSSF[Sar]A[NMeI]LSSTEVGSETP-NH2; disulfide 2-7): the EC50 in data set [1] was determined as 0.15 nM. Further, the EC50 in data set [2] came out at 0.35 nM. Moreover, in data set [3], the “Solubility, Acetate buffer pH 4” value is listed as “SS (SS indicates solubility ≥ 1mg/ml)”; the “Solubility, Acetate buffer pH 5” value is “SS (SS indicates solubility ≥ 1mg/ml)”; the “Solubility, Histidine buffer pH 6” value was “SS (SS indicates solubility ≥ 1mg/ml)”; the “Solubility, Histidine buffer pH 7” value was “SS (SS indicates solubility ≥ 1mg/ml)”. Also, in data set [3], the “Solubility, Phosphate buffer pH 6” value is given as “SS (SS indicates solubility ≥ 1mg/ml)”; the “Solubility, Phosphate buffer pH 7” value is recorded as “SS (SS indicates solubility ≥ 1mg/ml)”; the “Solubility, Phosphate buffer pH 7.5” value is reported as “SS (SS indicates solubility ≥ 1mg/ml)”.
In the case of `CC[C@H](C)[C@@H](C(=O)N[C@@H](CC(C)C)C(=O)N[C@@H](CO)C(=O)N[C@@H](CO)C(=O)N[C@H](C(=O)N[C@@H](CCC(=O)O)C(=O)N[C@H](C(=O)NCC(=O)N[C@@H](CO)C(=O)N[C@@H](CCC(=O)O)C(=O)N[C@H](C(=O)N1CCC[C@H]1C(N)=O)[C@@H](C)O)C(C)C)[C@@H](C)O)N(C)C(=O)[C@H](C)NC(=O)CN(C)C(=O)[C@H](Cc1ccccc1)NC(=O)[C@H](CO)NC(=O)[C@H](CO)NC(=O)[C@H](CO)NC(=O)[C@H](CO)NC(=O)[C@H](CCCNC(=N)N)NC(=O)[C@H](Cc1c[nH]cn1)NC(=O)[C@H](CC(C)C)NC(=O)[C@H](Cc1ccccc1)NC(=O)[C@H](CCC(=O)O)NC(=O)[C@H](C)NC(=O)[C@H](CC(C)C)NC(=O)[C@H](CCCNC(=N)N)NC(=O)[C@H](CO)NC(=O)[C@@H](NC(=O)[C@H](C)NC(=O)[C@@H]1CSSC[C@H](NC(=O)[C@H](CCCNC(=N)N)NC(=O)CC[C@H](NC(=O)CCCCCCCCCCCCCCCCCCC(=O)O)C(=O)O)C(=O)NCC(=O)N[C@@H]([C@@H](C)O)C(=O)N[C@@H](C)C(=O)N[C@@H]([C@@H](C)O)C(=O)N1)[C@@H](C)O` [Compound 141, [19CD]-isoGlu-RC()GTATC()ATSRLAEFLHRSSSSF-Gly(Me)-A-Ile(Me)-LSSTEVGSETP-NH2] ({C20 diacid-γGlu}-RCGTATCATSRLAEFLHRSSSSF[Sar]A[NMeI]LSSTEVGSETP-NH2; disulfide 2-7), the EC50 in data set [1] amounted to 0.11 nM. Moreover, in data set [2], the EC50 is 0.13 nM. In addition, in data set [3], the “Solubility, Acetate buffer pH 4” value was “SS (SS indicates solubility ≥ 1mg/ml)”; the “Solubility, Acetate buffer pH 5” value was “SS (SS indicates solubility ≥ 1mg/ml)”; the “Solubility, Histidine buffer pH 6” value is “SS (SS indicates solubility ≥ 1mg/ml)”; the “Solubility, Histidine buffer pH 7” value is recorded as “SS (SS indicates solubility ≥ 1mg/ml)”. For the same molecule, in data set [3], the “Solubility, Phosphate buffer pH 6” value was “SS (SS indicates solubility ≥ 1mg/ml)”; the “Solubility, Phosphate buffer pH 7” value is listed as “SS (SS indicates solubility ≥ 1mg/ml)”; the “Solubility, Phosphate buffer pH 7.5” value was “SS (SS indicates solubility ≥ 1mg/ml)”.
With `CC[C@H](C)[C@@H](C(=O)N[C@@H](CC(C)C)C(=O)N[C@@H](CO)C(=O)N[C@@H](CO)C(=O)N[C@H](C(=O)N[C@@H](CCC(=O)O)C(=O)N[C@H](C(=O)NCC(=O)N[C@@H](CO)C(=O)N[C@@H](CCC(=O)O)C(=O)N[C@H](C(=O)N1CCC[C@H]1C(N)=O)[C@@H](C)O)C(C)C)[C@@H](C)O)N(C)C(=O)[C@H](C)NC(=O)CN(C)C(=O)[C@H](Cc1ccccc1)NC(=O)[C@H](CO)NC(=O)[C@H](CO)NC(=O)[C@H](CO)NC(=O)[C@H](CO)NC(=O)[C@H](CCCNC(=N)N)NC(=O)[C@H](Cc1c[nH]cn1)NC(=O)[C@H](CC(C)C)NC(=O)[C@H](Cc1ccccc1)NC(=O)[C@H](CCC(=O)O)NC(=O)[C@H](C)NC(=O)[C@H](CC(C)C)NC(=O)[C@H](CCCNC(=N)N)NC(=O)[C@@H]1CCCN1C(=O)[C@@H](NC(=O)[C@H](C)NC(=O)[C@@H]1CSSC[C@H](NC(=O)[C@H](CCCNC(=N)N)NC(=O)CC[C@H](NC(=O)CCCCCCCCCCCCCCCCCCC(=O)O)C(=O)O)C(=O)N2CCC[C@H]2C(=O)N[C@@H]([C@@H](C)O)C(=O)N[C@@H](C)C(=O)N[C@@H]([C@@H](C)O)C(=O)N1)[C@@H](C)O` [Compound 143, [19CD]-isoGlu-RC()PTATC()ATPRLAEFLHRSSSSF-Gly(Me)-A-Ile(Me)-LSSTEVGSETP-NH2] ({C20 diacid-γGlu}-RCPTATCATPRLAEFLHRSSSSF[Sar]A[NMeI]LSSTEVGSETP-NH2; disulfide 2-7), the EC50 in data set [1] was found to be 0.26 nM. Further, in data set [2], the EC50 was 0.44 nM. Also, in data set [3], the “Solubility, Acetate buffer pH 4” value is recorded as “SS (SS indicates solubility ≥ 1mg/ml)”; the “Solubility, Acetate buffer pH 5” value is on record as “SS (SS indicates solubility ≥ 1mg/ml)”; the “Solubility, Histidine buffer pH 6” value was “SS (SS indicates solubility ≥ 1mg/ml)”; the “Solubility, Histidine buffer pH 7” value was “SS (SS indicates solubility ≥ 1mg/ml)”. Moreover, in data set [3], the “Solubility, Phosphate buffer pH 6” value is listed as “SS (SS indicates solubility ≥ 1mg/ml)”; the “Solubility, Phosphate buffer pH 7” value is “SS (SS indicates solubility ≥ 1mg/ml)”; the “Solubility, Phosphate buffer pH 7.5” value was “SS (SS indicates solubility ≥ 1mg/ml)”.
